# Assay results published in US9085606B2, “Beta amino acid derivatives as integrin antagonists” (Saint Louis University, priority 2012, dated 2015).
# Legend:
# [1] = target: T1, Recombinant human integrin α5β1 (Homo sapiens, UniProt P05556+P08648); assay: Solid Phase Receptor Assay for α5β1 Function; details: binding to fibronectin-coated plate; read-out: α5β1 SPRA IC50
# T1 construct: purchased R&D Systems 3230-A5
# Description: Solid Phase Receptor Assay for α5β1 Function.
# Wells were washed 3 times with 150 μL TBS+ and 150 μl of blocking buffer (TBS+ with 1% bovine serum albumin, Sigma A7906) were added. The plate was incubated for 1 hr at 37° C. and then washed 3× with TBS+ buffer. […] Compounds were diluted 1:100 into the integrin solution and then 50 μL added to empty wells of the washed fibronectin-coated plate according to a standard template with each sample repeated in triplicate. After incubation for two hours at room temperature, the plate was washed 3× with 150 μL of TBS+ buffer. To each well, 50 μL of biotinylated anti-α5 antibody (R&D Systems, BAF1864) at 0.5 ug/mL in TBS+/0.1% BSA were added and the plate covered and incubated for 1 hr at room temperature. After washing the plate 3× with 150 μL of TBS+ buffer, 50 μL of streptavidin-conjugated horseradish peroxidase (R&D Systems, DY998) diluted in TBS+ blocking buffer were added to the wells and the plate incubated for 20 min at room temperature. The plate was washed 3× with TBS+ buffer followed by 50 μL of room temperature TMB substrate (Sigma, T444) added to each well and the plate incubated for 20 min at room temperature. The reaction was optionally stopped with 25 μL of Stop Solution (Sigma S5689). Plates were read by colorimetric detection at 650 nm wavelength using a Tecan Safire II plate reader.
# [2] = target: T2, Recombinant human integrin αvβ5 (Homo sapiens, UniProt P06756+P18084); assay: Solid Phase Receptor Assay for αvβ5 Function; details: binding to vitronectin-coated plate; read-out: αvβ5 SPRA IC50
# T2 construct: purchased R&D Systems 2528-AV
# T2 sequence (P06756 31-992 limits assumed): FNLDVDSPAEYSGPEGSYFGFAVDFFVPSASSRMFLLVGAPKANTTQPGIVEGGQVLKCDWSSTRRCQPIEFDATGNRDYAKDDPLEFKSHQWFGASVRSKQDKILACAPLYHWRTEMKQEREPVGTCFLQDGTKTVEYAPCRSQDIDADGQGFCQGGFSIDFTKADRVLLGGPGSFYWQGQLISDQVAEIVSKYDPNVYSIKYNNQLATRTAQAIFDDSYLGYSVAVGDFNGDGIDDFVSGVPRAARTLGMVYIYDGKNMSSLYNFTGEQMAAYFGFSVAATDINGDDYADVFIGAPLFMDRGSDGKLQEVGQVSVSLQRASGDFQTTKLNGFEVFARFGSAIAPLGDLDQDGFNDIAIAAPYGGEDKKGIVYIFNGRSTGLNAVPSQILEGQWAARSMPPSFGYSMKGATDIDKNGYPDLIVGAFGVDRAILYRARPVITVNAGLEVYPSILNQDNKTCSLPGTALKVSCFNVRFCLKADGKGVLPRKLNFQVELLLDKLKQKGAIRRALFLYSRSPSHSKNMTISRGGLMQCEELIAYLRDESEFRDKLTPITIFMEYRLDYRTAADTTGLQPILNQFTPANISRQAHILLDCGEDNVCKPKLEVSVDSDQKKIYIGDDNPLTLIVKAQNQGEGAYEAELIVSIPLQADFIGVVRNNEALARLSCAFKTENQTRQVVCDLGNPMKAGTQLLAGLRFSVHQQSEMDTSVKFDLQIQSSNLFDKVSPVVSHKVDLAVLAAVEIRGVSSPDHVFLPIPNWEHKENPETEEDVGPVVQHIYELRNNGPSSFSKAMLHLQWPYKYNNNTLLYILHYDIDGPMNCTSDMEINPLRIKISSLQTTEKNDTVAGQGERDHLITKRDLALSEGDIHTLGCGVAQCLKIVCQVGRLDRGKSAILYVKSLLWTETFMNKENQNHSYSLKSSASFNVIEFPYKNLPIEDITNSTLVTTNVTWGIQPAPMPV
# T2 sequence (P18084 24-719 limits assumed): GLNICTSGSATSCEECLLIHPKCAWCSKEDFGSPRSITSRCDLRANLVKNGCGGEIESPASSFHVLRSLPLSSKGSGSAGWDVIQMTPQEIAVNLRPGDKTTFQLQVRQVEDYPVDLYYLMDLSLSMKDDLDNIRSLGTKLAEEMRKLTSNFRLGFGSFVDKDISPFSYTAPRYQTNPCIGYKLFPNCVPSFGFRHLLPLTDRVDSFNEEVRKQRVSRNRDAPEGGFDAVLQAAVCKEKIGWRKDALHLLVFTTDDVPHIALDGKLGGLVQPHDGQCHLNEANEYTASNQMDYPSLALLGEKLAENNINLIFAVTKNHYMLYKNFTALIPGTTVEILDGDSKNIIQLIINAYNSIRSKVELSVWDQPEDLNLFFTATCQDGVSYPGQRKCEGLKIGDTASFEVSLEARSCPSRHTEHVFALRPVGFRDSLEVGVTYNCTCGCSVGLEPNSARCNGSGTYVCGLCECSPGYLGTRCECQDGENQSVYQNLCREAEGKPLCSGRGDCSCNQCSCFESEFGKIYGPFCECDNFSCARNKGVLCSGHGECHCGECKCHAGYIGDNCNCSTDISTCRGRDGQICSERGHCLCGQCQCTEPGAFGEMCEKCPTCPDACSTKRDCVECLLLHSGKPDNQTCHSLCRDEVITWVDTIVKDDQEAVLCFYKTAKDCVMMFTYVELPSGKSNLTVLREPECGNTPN
# Description: Solid Phase Receptor Assay for αvβ5 Function.
# (§1) Wells were washed 3 times with 150 μL TBS+ and 150 μL of blocking buffer (TBS+ with 1% bovine serum albumin, Sigma A7906) were added. The plate was incubated for 1 hr at 37° C. and then washed 3× with TBS+ buffer. […] Compounds were diluted 1:100 into the integrin solution and then 50 μL added to empty wells of the washed vitronectin-coated plate according to a standard template with each sample repeated in triplicate. After incubation for two hours at room temperature, the plate was washed 3× with 150 μL of TBS+ buffer. To each well, 50 μL of biotinylated anti-αv antibody (R&D Systems, BAF1219) at 0.5 μg/mL in TBS+/0.1% BSA at 0.5 μg/mL were added and the plate covered and incubated for 1 hr at room temperature. After washing the plate 3× with 150 μL of TBS+ buffer, 50 μL of streptavidin-conjugated horseradish peroxidase (R&D Systems DY998) diluted in TBS+ blocking buffer were added to the wells and the plate incubated for 20 min at room temperature. The plate was washed 3× with TBS+ buffer followed by 50 μL of TMB substrate (Sigma T4444) added to each well and the plate incubated for 20 min at room temperature. The reaction was optionally stopped with 25 μL of Stop Solution (Sigma S5689). Plates were read by colorimetric detection at 650 nm wavelength using a Tecan Safire II plate reader.
# [3] = target: T3, Recombinant human integrin αvβ6 (Homo sapiens, UniProt P06756+P18564); assay: Solid Phase Receptor Assay for αvβ6 Function; details: binding to LAP-coated plate; read-out: αvβ6 SPRA IC50
# T3 construct: purchased R&D Systems 3817-AV
# T3 sequence (P06756 31-992 limits assumed): as the sequence (P06756 31-992 limits assumed) above
# T3 sequence (P18564 22-707 limits assumed): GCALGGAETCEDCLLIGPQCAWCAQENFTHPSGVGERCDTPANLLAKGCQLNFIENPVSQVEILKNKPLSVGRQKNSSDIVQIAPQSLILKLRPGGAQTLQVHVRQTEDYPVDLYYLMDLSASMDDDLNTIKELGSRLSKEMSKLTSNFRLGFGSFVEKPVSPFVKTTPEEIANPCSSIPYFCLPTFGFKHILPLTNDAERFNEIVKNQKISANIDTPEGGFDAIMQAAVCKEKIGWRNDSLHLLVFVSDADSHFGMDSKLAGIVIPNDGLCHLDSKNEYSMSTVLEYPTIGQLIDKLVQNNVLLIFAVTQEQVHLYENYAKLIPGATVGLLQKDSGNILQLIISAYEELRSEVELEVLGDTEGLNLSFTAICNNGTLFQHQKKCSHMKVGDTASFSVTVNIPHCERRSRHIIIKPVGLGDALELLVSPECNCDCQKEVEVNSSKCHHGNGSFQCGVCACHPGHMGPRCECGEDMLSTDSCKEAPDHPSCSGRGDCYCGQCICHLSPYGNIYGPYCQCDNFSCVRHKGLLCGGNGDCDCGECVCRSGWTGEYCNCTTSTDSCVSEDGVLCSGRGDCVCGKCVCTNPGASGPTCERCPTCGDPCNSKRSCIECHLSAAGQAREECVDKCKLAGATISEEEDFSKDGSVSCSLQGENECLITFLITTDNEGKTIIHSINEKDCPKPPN
# Description: Solid Phase Receptor Assay for αvβ6 Function.
# as §1, with “150 μL TBS+, and 150” for “150 μL TBS+ and 150”, “at 37° C., and then” for “at 37° C. and then”, “the washed LAP-coated plate according” for “the washed vitronectin-coated plate according”, “TBS+/0.1% BSA were added” for “TBS+/0.1% BSA at 0.5 μg/mL were added”, “the plate was covered and” for “the plate covered and”, “peroxidase (R&D Systems, DY998) diluted” for “peroxidase (R&D Systems DY998) diluted”
# T1 sequence (P08648 42-995 limits assumed): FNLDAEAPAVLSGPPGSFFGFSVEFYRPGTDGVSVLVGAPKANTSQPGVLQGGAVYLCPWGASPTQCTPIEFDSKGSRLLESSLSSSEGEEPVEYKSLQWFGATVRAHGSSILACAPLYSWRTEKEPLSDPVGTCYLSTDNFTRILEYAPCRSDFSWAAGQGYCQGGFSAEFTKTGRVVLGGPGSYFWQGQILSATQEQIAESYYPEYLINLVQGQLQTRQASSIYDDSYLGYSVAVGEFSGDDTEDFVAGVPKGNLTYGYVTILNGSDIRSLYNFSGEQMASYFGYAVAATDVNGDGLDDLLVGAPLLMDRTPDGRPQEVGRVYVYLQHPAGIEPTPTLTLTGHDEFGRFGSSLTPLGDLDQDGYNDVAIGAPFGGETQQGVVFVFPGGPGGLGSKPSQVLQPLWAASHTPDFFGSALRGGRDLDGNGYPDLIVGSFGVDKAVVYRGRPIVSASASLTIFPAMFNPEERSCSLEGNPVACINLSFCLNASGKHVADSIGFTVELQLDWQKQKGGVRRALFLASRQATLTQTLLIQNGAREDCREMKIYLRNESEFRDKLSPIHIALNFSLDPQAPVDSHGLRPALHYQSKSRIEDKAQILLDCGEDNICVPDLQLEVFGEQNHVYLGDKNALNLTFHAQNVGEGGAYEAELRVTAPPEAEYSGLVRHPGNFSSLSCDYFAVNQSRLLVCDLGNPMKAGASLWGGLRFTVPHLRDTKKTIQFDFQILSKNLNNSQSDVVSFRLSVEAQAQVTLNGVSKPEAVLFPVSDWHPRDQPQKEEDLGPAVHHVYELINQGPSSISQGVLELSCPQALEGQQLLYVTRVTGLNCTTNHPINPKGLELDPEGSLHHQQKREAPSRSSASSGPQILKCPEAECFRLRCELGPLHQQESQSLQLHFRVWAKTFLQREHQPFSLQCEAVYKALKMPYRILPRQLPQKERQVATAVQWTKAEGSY
# T1 sequence (P05556 21-728 limits assumed): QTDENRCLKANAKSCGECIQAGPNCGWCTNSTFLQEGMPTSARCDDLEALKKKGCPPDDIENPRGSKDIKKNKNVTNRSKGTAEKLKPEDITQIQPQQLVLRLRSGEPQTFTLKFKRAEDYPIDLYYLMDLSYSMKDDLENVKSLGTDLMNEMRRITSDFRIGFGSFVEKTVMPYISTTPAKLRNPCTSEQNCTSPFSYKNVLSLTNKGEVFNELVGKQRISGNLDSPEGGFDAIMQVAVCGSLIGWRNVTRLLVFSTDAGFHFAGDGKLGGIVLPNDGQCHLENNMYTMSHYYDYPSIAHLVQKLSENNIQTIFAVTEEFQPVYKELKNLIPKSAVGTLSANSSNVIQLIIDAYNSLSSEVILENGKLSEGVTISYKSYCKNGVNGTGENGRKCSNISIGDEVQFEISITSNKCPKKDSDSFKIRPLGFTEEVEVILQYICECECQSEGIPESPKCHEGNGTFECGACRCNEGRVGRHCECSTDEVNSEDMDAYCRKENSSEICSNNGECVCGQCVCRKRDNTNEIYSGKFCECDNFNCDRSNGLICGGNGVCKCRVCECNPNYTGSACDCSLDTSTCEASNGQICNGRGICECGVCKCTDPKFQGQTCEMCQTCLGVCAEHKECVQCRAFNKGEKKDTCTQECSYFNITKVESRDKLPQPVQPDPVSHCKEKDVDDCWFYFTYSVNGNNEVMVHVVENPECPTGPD
SMILES,IC50 [1] [nM],IC50 [2] [nM],IC50 [3] [nM]
"N#CC1(c2cc(Cl)cc([C@H](CC(=O)O)NC(=O)CNC(=O)c3cc(O)cc(NC4=NCC(O)CN4)c3)c2)CCC1 (stereo partly drawn) [Example 21, (3S)-3-(3-chloro-5-(1-cyanocyclobutyl)phenyl)-3-(2-(3-hydroxy-5-((5-hydroxy-1,4,5,6-tetrahydropyrimidin-2-yl)amino)benzamido)acetamido)propanoic acid]",0.3,0.4,0.3
"N#CC1(c2cc(Cl)cc([C@H](CC(=O)O)NC(=O)CNC(=O)c3cc(O)cc(NC4=NCC(O)CN4)c3)c2)CCOCC1 (stereo partly drawn) [Example 22, (3S)-3-(3-chloro-5-(4-cyanotetrahydro-2H-pyran-4-yl)phenyl)-3-(2-(3-hydroxy-5-((5-hydroxy-1,4,5,6-tetrahydropyrimidin-2-yl)amino)benzamido)acetamido)propanoic acid]",0.3,0.4,0.3
"CC(O)(c1cc(Cl)cc([C@H](CC(=O)O)NC(=O)CNC(=O)c2cc(O)cc(NC3=NCC(O)CN3)c2)c1)C(F)(F)F (stereo partly drawn) [Example 23, (3S)-3-(3-chloro-5-(1,1,1-trifluoro-2-hydroxypropan-2-yl)phenyl)-3-(2-(3-hydroxy-5-((5-hydroxy-1,4,5,6-tetrahydropyrimidin-2-yl)amino)benzamido)acetamido)propanoic acid]",0.3,0.5,0.4
"CC(C)(c1cc(Cl)cc([C@H](CC(=O)O)NC(=O)CNC(=O)c2cc(O)cc(NC3=NCC(O)CN3)c2)c1)C(F)(F)F (stereo partly drawn) [Example 24, (3S)-3-(3-chloro-5-(1,1,1-trifluoro-2-methylpropan-2-yl)phenyl)-3-(2-(3-hydroxy-5-((5-hydroxy-1,4,5,6-tetrahydropyrimidin-2-yl)amino)benzamido)acetamido)propanoic acid]",0.3,0.3,0.4
"CC(O)(c1cc([C@H](CC(=O)O)NC(=O)CNC(=O)c2cc(O)cc(NC3=NCC(O)CN3)c2)cc(C(F)(F)F)c1)C(F)(F)F (stereo partly drawn) [Example 25, (3S)-3-(2-(3-hydroxy-5-((5-hydroxy-1,4,5,6-tetrahydropyrimidin-2-yl)amino)benzamido)acetamido)-3-(3-(1,1,1-trifluoro-2-hydroxypropan-2-yl)-5-(trifluoromethyl)phenyl)propanoic acid]",0.4,1.3,0.4
"O=C(O)C[C@H](NC(=O)CNC(=O)c1cc(O)cc(NC2=NCC(O)CN2)c1)c1cc(Br)cc(C2(C(F)F)CC2)c1 (stereo partly drawn) [Example 26, (3S)-3-(3-bromo-5-(1-(difluoromethyl)cyclopropyl)phenyl)-3-(2-(3-hydroxy-5-((5-hydroxy-1,4,5,6-tetrahydropyrimidin-2-yl)amino)benzamido)acetamido)propanoic acid]",0.1,0.5,0.1
